The results in this text go back to ChEMBL document CHEMBL5696441 (Nat Chem Biol, 2011).

The structures appear in SMILES notation.

Assay [1] has as its target Ankyrin repeat and protein kinase domain-containing protein 1 (Homo sapiens) (UniProt Q8NFD2). The experiment in a line: Inhibition of ANKK1 (unknown origin) assessed as remaining activity at 1 uM by Kinome scan method relative to control.
The target in assay [2] is T1, Serine/threonine-protein kinase NLK (Homo sapiens) (UniProt Q9UBE8).
T1 sequence (whole entry): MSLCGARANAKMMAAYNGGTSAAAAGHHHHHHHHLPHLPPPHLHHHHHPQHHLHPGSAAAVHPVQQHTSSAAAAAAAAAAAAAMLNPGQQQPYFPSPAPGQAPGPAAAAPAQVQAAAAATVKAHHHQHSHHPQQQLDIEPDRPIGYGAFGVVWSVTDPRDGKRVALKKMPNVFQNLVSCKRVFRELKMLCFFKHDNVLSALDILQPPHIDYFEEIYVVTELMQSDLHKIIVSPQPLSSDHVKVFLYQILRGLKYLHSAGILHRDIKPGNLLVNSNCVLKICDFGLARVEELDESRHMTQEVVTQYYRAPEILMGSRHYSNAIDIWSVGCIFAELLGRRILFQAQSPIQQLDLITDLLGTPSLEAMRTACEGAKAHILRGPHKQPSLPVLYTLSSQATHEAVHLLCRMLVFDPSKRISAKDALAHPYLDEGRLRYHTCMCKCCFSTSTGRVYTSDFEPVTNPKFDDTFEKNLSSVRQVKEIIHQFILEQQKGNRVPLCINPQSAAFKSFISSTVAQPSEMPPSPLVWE
Briefly: Inhibition of NLK (unknown origin) assessed as remaining activity at 1 uM by Kinome scan method relative to control.

Assay [3] has as its target T2, Tyrosine-protein kinase JAK3 (Homo sapiens) (UniProt P52333).
T2 sequence (whole entry): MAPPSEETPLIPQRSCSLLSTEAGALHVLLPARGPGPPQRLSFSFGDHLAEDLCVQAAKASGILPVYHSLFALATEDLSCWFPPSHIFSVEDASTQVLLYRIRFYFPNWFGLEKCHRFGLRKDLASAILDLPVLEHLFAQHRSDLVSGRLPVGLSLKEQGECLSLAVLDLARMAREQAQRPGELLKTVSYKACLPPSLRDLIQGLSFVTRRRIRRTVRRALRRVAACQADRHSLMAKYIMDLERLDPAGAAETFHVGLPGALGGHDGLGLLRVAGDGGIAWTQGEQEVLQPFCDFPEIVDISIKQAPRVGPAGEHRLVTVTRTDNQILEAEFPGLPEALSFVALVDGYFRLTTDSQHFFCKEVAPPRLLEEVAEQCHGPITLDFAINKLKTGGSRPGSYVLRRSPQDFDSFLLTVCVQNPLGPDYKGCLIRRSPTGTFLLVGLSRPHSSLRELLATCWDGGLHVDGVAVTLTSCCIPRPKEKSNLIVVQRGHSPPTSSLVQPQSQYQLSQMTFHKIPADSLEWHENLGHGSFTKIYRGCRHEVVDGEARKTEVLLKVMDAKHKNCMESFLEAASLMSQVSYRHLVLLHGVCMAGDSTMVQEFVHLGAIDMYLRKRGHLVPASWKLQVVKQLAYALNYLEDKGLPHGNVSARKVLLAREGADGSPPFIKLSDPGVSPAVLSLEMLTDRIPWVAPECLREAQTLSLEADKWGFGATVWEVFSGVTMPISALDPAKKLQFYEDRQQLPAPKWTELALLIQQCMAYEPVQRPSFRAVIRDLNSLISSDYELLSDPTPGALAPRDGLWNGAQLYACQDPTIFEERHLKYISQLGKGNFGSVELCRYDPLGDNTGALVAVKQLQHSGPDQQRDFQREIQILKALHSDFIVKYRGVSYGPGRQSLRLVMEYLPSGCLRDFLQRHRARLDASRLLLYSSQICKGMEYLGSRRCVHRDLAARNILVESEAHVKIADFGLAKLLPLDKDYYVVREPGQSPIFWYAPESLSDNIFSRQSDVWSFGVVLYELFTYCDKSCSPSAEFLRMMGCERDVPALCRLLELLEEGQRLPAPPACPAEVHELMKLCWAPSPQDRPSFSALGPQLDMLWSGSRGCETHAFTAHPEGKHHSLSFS
Briefly: Inhibition of JAK3 JH1 domain (unknown origin) assessed as remaining activity at 1 uM by Kinome scan method relative to control.

The target in assay [4] is Tyrosine-protein kinase HCK (Homo sapiens) (UniProt P08631). The experiment in a line: Inhibition of HCK (unknown origin) assessed as remaining activity at 1 uM by Kinome scan method relative to control.
Tyrosine-protein kinase HCK (Homo sapiens), sequence (P08631 2-526 limits assumed): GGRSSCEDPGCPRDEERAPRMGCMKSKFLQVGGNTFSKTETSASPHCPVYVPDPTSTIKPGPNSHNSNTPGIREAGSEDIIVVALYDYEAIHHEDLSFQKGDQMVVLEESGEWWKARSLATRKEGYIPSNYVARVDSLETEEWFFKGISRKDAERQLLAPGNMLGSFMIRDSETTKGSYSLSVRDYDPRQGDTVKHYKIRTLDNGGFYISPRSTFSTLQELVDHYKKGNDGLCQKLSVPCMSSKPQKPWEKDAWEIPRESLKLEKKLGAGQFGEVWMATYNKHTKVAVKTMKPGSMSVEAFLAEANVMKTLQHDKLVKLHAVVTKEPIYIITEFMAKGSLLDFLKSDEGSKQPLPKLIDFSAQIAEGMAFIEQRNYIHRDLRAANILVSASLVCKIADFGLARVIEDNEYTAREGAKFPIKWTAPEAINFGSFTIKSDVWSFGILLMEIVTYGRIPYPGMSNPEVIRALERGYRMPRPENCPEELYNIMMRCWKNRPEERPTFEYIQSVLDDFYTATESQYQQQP
Assay [5] deals with Phosphatidylinositol 4,5-bisphosphate 3-kinase catalytic subunit beta isoform (Homo sapiens) (UniProt P42338). The experiment in a line: Inhibition of PIK3CB (unknown origin) assessed as remaining activity at 1 uM by Kinome scan method relative to control.
Phosphatidylinositol 4,5-bisphosphate 3-kinase catalytic subunit beta isoform (Homo sapiens), sequence (P42338 whole entry, looked up, canonical isoform): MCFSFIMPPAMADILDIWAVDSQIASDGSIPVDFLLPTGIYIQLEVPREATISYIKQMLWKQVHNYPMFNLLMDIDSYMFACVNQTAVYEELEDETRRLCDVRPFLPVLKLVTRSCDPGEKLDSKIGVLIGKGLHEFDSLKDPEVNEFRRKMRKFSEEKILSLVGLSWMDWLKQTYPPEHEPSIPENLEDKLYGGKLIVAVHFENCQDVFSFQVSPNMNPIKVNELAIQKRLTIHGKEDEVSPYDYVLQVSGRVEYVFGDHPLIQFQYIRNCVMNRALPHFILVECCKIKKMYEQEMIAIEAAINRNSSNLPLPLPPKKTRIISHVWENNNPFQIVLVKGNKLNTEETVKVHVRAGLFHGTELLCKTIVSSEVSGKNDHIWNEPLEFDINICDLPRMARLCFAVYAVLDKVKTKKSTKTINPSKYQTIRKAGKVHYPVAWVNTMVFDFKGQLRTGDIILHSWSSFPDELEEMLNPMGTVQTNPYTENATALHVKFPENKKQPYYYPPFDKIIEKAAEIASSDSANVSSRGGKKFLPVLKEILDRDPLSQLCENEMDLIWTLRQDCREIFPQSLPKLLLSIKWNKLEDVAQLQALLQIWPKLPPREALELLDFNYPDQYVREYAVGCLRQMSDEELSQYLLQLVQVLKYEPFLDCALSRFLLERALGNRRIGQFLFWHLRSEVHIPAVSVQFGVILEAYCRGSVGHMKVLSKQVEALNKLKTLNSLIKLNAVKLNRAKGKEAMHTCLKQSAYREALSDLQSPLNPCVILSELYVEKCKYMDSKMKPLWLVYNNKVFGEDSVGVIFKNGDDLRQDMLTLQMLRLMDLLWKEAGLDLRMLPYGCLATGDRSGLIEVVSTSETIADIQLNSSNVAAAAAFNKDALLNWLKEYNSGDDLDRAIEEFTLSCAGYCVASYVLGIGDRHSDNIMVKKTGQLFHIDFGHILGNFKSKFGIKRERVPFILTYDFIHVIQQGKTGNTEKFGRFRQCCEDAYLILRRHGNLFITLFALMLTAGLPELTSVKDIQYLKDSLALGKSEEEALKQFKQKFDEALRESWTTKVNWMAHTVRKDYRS
For assay [6], the target named is T3, Mitogen-activated protein kinase kinase kinase kinase 2 (Homo sapiens) (UniProt Q12851).
T3 sequence (whole entry): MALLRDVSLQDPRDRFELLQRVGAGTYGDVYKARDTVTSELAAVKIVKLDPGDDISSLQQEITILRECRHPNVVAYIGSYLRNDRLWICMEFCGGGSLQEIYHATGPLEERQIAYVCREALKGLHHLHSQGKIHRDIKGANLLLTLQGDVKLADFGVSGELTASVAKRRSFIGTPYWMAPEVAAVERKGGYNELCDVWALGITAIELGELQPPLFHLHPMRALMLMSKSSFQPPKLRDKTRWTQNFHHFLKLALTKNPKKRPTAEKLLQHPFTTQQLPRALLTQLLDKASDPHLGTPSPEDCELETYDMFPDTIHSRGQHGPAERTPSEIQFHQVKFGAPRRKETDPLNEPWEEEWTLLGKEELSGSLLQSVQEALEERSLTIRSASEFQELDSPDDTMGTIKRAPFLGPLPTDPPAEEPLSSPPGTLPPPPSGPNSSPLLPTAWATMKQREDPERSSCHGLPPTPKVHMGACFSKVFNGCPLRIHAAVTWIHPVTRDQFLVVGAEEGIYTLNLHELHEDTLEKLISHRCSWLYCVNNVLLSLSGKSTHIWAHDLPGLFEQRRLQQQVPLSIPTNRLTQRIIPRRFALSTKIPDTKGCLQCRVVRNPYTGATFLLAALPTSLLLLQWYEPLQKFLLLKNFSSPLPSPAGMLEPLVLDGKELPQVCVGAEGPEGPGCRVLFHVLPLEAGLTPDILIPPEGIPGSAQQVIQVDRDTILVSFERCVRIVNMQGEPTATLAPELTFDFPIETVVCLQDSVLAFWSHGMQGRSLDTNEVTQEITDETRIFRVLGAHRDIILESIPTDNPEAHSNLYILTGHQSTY
Briefly: Inhibition of MAP4K2 (unknown origin) assessed as remaining activity at 1 uM by Kinome scan method relative to control.

In assay [7] the target is MAP kinase-activated protein kinase 2 (Homo sapiens) (UniProt P49137). Briefly: Inhibition of MAPKAPK2 (unknown origin) assessed as remaining activity at 1 uM by Kinome scan method relative to control.
MAP kinase-activated protein kinase 2 (Homo sapiens), sequence (P49137 whole entry, looked up): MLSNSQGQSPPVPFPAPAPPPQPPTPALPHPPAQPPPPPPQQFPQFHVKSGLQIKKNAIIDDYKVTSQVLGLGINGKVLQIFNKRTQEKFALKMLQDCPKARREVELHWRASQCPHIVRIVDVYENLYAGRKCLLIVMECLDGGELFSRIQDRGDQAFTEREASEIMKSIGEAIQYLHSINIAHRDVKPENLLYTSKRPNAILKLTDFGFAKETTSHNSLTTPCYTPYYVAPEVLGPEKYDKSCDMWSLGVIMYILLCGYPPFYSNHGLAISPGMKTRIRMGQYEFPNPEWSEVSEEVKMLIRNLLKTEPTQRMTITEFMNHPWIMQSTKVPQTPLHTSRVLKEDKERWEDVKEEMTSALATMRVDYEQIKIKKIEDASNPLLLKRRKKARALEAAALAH
For assay [8], the target named is TGF-beta receptor type-2 (Homo sapiens) (UniProt P37173). The experiment in a line: Inhibition of TGFBR2 (unknown origin) assessed as remaining activity at 1 uM by Kinome scan method relative to control.
TGF-beta receptor type-2 (Homo sapiens), sequence (P37173 whole entry): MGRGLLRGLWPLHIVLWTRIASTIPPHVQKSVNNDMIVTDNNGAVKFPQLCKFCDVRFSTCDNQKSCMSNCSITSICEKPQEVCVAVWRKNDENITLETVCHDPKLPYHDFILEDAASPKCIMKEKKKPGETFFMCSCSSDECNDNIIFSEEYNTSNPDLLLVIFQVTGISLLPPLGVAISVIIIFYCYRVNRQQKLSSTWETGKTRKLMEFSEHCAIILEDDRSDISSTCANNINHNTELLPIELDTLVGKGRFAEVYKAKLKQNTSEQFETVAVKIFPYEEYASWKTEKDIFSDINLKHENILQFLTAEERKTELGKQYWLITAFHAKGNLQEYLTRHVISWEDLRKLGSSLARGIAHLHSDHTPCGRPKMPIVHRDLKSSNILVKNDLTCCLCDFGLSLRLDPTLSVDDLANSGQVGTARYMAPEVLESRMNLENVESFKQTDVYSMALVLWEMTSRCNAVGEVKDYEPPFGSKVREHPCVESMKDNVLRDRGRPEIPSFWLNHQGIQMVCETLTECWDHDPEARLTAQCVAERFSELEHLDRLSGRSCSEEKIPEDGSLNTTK

Ankyrin repeat and protein kinase domain-containing protein 1 (Homo sapiens), sequence (Q8NFD2 whole entry, the tested form may be a part): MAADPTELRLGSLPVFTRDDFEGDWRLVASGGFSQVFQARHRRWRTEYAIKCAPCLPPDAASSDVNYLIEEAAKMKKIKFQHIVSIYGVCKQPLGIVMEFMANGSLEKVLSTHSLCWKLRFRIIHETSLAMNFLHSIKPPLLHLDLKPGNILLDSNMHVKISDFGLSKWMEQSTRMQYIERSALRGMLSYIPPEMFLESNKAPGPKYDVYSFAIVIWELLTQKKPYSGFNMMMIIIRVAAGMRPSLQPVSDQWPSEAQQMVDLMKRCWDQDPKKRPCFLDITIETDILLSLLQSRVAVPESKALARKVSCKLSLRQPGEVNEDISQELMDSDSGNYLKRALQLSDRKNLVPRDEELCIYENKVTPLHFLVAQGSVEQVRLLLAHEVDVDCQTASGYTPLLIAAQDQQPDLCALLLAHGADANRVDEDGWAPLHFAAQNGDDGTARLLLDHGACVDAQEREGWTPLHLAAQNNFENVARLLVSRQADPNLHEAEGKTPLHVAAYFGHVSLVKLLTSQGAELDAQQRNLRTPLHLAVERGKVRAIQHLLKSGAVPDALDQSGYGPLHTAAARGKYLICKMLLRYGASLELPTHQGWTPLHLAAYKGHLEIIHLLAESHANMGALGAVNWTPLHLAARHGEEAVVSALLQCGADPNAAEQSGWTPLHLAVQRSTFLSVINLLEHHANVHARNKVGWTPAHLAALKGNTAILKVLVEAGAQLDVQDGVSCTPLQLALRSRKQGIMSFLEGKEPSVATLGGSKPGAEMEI

Turning to `Nc1ccccc1Nc1ccc2c(c1)CCc1ccccc1C2=O`, the Activity amounted to 96% in assay [1]; 87% in assay [2]; 96% in assay [3]; 93% in assay [4]; 88% in assay [5]; 99% in assay [6]. The Activity came to 96% in assay [7] and 93% in assay [8].

Regarding `O=C1c2ccc(Nc3ccc(F)cc3F)cc2CCc2ccc(OC[C@H](O)CO)cc21` [Skepinone-L], the Activity in assay [1] was determined as 99%; in assay [2] it was 96%; in assay [3] it was 91%; in assay [4], 97%; in assay [5], 96%; in assay [6], 94%. Moreover, the Activity in assay [7] came to 94%; in assay [8], 100%.
